Data: patent US9422299B2, “Substituted [1,2,4]triazolo[4,3-a]pyrazines as selective NK-3 receptor antagonists” (EUROSCREEN SA, priority 2013, dated 2016)

Key:
human NK-3 receptor [1] = target: T1, human NK-3 receptor (Homo sapiens (Human), UniProt P29371); test: 3H-SB222200 binding competition assay with human NK-3 receptor; conditions: read-out: hNK-3 (Ki)
Procedure: The affinity of compounds of the invention for the human NK-3 receptor was determined by measuring the ability of compounds of the invention to competitively and reversibly displace a well-characterized NK-3 radioligand in a concentration-dependent manner.
^3H-SB222200 Binding Competition Assay with Human NK-3 Receptor
Membranes were prepared from Chinese hamster ovary recombinant cells stably expressing the human NK-3 receptor. The membranes were incubated with 5 nM ^3H-SB222200 (ARC) in a HEPES 25 mM/NaCl 0.1M/CaCl2 1 mM/MgCl2 5 mM/BSA 0.5%/Saponin 10 μg/ml buffer at pH 7.4 and various concentrations of compounds of the invention. The amount of ^3H-SB222200 bound to the receptor was determined after filtration by the quantification of membrane associated radioactivity using the TopCount-NXT reader (Packard).

human NK-2 receptor = human NK-2 receptor (Homo sapiens (Human), UniProt P21452); test: Selectivity assay: [125I]-Neurokinin A binding, human NK-2; conditions: 0.1 nM [125I]-Neurokinin A, CHO membranes; read-out: hNK-2 (Ki)
Procedure: The affinity of compounds of the invention for the NK-2 receptor was evaluated in CHO recombinant cells which express the human NK-2 receptor. Membrane suspensions were prepared from these cells. […] Binding assays were performed in a 25 mM HEPES/1 mM CaCl2/5 mM MgCl2/0.5% BSA/10 μg/ml saponin, at pH 7.4. […] The radioactivity retained on the filters was measured by using the TopCount-NXT reader (Packard).

plasma protein = test: Determination of plasma protein binding (equilibrium dialysis); format: in vitro ADME; conditions: 4 hours at 37° C.
Text: Determination of Plasma Protein Binding
The pharmacokinetic and pharmacodynamic properties of chemicals/drugs are largely a function of the reversible binding of chemicals to plasma or serum proteins. […] Consequently, the extent of the plasma protein binding (PPB) of a compound influences its action as well as its distribution and elimination.
The determination of plasma protein binding (PPB) of a compound is enabled by equilibrium dialysis, an accepted and standard method for reliable estimation of the non-bound drug fraction in plasma. RED (Rapid Equilibrium Dialysis) device insert is made of two side-by-side chambers separated by an O-ring-sealed vertical cylinder of dialysis membrane (MWCO˜8,000). […] After 4 hours incubation at 37° C. under shaking, an aliquot is removed from each chamber and analyzed by a LC-MS/MS procedure enables the determination of both free and bound drug.
The “free fraction” may be calculated as 100%-% rPPB (i.e. the complementary percentage of that disclosed in Table 4, corresponding to the drug concentration that is unbound and therefore available to engage biological target and elicit pharmacological activity).

human NK-3 receptor [2] = target: T1, human NK-3 receptor; test: Aequorin functional assay with human NK-3 receptor (antagonist testing); format: cell-based; conditions: read-out: Functional assay: Aequorin assay with human NK-3 receptor hNK-3 - AEQ (antagonist IC50)
Procedure: Aequorin Assay with Human NK-3 Receptor
Changes in intracellular calcium levels are a recognized indicator of G protein-coupled receptor activity. The efficacy of compounds of the invention to inhibit NKA-mediated NK-3 receptor activation was assessed by an in vitro Aequorin functional assay. Chinese Hamster Ovary recombinant cells expressing the human NK-3 receptor and a construct that encodes the photoprotein apoaequorin were used for this assay. In the presence of the cofactor coelenterazine, apoaequorin emits a measurable luminescence that is proportional to the amount of intracellular (cytoplasmic) free calcium.
The antagonist activity of compounds of the invention is measured following pre-incubation (3 minutes) of the compound (at various concentrations) with the cells, followed by addition of the reference agonist (NKA) at a final concentration equivalent to the EC80 (3 nM) and recording of emitted light (FDSS 6000 Hamamatsu) over the subsequent 90-second period. The intensity of the emitted light is integrated using the reader software. Compound antagonist activity is measured based on the concentration-dependent inhibition of the luminescence response to the addition of Neurokinin A.

hERG channel = hERG channel (Homo sapiens (Human), UniProt Q12809); test: hERG inhibition assay (manual patch-clamp, HEK 293 cells); format: cell-based; conditions: 5 minutes of exposure, read-out: CardioSafety (hERG IC50)
Procedure: The human ether-a-go-go related gene (hERG) encodes the inward rectifying voltage gated potassium channel in the heart (IKr) which is involved in cardiac repolarisation. […] IKr current inhibition accounts for the vast majority of known cases of drug-induced QT-prolongation.
Whole-cell currents (acquisition by manual patch-clamp) elicited during a voltage pulse were recorded in baseline conditions and following application of tested compounds (5 minutes of exposure). The concentrations of tested compounds (0.3 μM; 3 μM; 10 μM; 30 μM) reflect a range believed to exceed the concentrations at expected efficacy doses in preclinical models.
The current density recorded were normalized against the baseline conditions and corrected for solvent effect and time-dependent current run-down using experimental design in test compound free conditions.

human NK-1 receptor = human NK-1 receptor (Homo sapiens (Human), UniProt P25103); test: Selectivity assay: [3H] substance P binding, human NK-1; conditions: 2 nM [3H] substance P, CHO membranes; read-out: hNK-1 (Ki)
Procedure: Selectivity of the compounds of the invention was determined over the other human NK receptors, namely NK-1 and NK-2 receptors.
The affinity of compounds of the invention for the NK-1 receptor was evaluated in CHO recombinant cells which express the human NK-1 receptor. Membrane suspensions were prepared from these cells. The following radioligand: [^3H] substance P (PerkinElmer Cat#NET111520) was used in this assay. Binding assays were performed in a 50 mM Tris/5 mM MnCl2/150 mM NaCl/0.1% BSA at pH 7.4. Binding assays consisted of 25 μl of membrane suspension (approximately 5 μg of protein/well in a 96 well plate), 50 μl of compound or reference ligand (Substance P) at increasing concentrations (diluted in assay buffer) and 2 nM [^3H] substance P. The plate was incubated 60 min at 25° C. in a water bath and then filtered over GF/C filters (Perkin Elmer, 6005174, presoaked in 0.5% PEI for 2 h at room temperature) with a Filtration unit (Perkin Elmer). The radioactivity retained on the filters was measured by using the TopCount-NXT reader (Packard).

T1 sequence (P29371 whole entry): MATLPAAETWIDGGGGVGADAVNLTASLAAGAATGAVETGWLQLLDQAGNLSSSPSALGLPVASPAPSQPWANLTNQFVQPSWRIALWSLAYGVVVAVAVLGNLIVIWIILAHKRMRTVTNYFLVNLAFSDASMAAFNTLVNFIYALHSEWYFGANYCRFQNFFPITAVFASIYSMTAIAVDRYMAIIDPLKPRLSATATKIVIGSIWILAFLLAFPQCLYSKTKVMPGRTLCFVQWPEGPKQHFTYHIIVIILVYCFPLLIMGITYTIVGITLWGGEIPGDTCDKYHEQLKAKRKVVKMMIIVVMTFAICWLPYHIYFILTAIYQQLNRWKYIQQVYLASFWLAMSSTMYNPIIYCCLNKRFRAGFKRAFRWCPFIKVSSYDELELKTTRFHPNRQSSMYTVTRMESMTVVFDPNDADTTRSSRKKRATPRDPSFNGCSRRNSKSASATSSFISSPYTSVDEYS
Chain of human NK-2 receptor (P21452 whole entry): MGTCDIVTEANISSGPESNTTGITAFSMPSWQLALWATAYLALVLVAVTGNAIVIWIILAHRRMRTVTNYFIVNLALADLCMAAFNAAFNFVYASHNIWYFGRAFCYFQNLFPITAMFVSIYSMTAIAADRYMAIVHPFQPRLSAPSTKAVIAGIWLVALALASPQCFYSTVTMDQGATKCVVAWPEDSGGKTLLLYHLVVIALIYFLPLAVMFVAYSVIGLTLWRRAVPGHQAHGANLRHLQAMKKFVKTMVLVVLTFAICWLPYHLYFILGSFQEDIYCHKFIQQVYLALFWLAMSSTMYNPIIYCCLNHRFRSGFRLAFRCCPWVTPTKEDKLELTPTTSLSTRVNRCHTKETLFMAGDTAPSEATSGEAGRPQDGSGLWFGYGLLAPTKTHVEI
Chain of hERG channel (Q12809 whole entry): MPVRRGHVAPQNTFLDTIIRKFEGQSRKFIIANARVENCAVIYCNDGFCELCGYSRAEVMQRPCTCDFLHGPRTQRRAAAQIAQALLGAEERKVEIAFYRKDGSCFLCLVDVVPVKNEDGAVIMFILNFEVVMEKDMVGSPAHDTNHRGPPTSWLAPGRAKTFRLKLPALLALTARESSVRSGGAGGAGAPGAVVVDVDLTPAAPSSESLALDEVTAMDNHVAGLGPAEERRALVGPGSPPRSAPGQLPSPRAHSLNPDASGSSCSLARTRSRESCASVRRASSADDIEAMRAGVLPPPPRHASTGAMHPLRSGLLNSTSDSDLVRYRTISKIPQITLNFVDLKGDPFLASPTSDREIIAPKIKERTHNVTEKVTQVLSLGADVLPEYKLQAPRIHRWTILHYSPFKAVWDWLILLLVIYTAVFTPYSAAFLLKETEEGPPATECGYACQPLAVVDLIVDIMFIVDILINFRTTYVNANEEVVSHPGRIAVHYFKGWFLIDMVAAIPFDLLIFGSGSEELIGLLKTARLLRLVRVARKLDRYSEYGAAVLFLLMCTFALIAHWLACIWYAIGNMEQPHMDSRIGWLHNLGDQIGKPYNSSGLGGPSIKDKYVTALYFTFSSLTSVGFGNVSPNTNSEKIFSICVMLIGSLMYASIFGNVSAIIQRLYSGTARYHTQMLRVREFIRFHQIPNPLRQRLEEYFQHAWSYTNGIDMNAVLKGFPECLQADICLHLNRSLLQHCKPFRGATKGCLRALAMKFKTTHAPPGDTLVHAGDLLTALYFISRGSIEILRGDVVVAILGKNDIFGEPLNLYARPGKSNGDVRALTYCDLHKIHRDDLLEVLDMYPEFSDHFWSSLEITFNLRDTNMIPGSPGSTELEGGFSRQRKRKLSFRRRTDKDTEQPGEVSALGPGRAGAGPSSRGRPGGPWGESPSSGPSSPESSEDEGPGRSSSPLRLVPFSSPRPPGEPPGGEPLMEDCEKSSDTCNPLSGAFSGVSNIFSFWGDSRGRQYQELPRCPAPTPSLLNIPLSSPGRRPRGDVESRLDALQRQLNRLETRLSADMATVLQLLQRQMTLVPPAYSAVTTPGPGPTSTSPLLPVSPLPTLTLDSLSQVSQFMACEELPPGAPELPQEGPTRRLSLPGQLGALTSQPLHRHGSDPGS
Chain of human NK-1 receptor (P25103 whole entry): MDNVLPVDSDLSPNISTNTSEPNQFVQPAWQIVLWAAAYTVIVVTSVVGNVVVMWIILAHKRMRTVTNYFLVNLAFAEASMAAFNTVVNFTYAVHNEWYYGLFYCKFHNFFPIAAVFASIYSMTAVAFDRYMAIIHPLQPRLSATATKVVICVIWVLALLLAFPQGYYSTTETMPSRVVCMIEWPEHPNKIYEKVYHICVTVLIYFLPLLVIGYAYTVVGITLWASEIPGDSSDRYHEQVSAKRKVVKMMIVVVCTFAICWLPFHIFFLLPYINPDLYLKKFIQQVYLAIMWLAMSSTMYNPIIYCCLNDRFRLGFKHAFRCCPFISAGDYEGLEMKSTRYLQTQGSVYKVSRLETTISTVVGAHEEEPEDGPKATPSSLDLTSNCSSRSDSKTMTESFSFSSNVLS

For `COc1cccc(C(=O)N2CCn3c(-c4nc(C)ns4)nnc3[C@H]2C)c1` [Compound 27, (R)-(3-methoxyphenyl)(8-methyl-3-(3-methyl-1,2,4-thiadiazol-5-yl)-5,6-dihydro-[1,2,4]triazolo[4,3-a]pyrazin-7(8H)-yl)methanone], the Ki (human NK-3 receptor [1]) was 100 nM, the Ki (human NK-2 receptor) was greater than 30000 nM and the “Exposure (% rPPB), bound drug fraction to the plasma protein” value (plasma protein) was 24%. The IC50 (human NK-3 receptor [2]) was 220 nM, the IC50 (hERG channel) was no less than 70000 nM and the Ki (human NK-1 receptor) was greater than 30000 nM.
